Assay results taken from patent publication US11866720B2, “Transgenic or non-transgenic plants with mutated protoporphyrinogen oxidase having increased tolerance to herbicides” (priority 2013, dated 2024).
Like-named read-outs stand apart in the source and are kept apart here.

What was measured:
[1] = test system: transgenic soybean expressing mutated PPO; format: in vivo, Glycine max; conditions: T1 soybean, field; on injury (1-5 point scale): key: 1: no obvious damage (no phytotoxicity); 2: minor amount of leaf damage, plant will survive; 3: moderate amount of leaf damage, plant will survive; 4: severe amount of leaf damage, plant will survive; 5: no surviving plants - all plants dead/dying
[2] = test system: transgenic Arabidopsis thaliana plants expressing wildtype or mutated PPO; assay: Germination / growth inhibition assay of transgenic Arabidopsis T2 seeds in 48-well plates; conditions: growth inhibition seven to ten days after seeding

CC(C)N(C)S(=O)(=O)NC(=O)c1cc(-n2c(=O)cc(C(F)(F)F)n(C)c2=O)c(F)cc1Cl [Saflufenacil, saflufenacil]
injury (1-5 point scale) ([1]; SDS-10648 AmtuPPX2L R128A_F420I, Saflufenacil 75 g ai/ha, 3 days after treatment): 2
injury (1-5 point scale) ([1]; SDS-10648 AmtuPPX2L R128A_F420I, Saflufenacil 150 g ai/ha, 3 days after treatment): 2
Injury rating (1-5 point scale) ([1]; SDS-10648 LTM386-1 AmtuPPX2L_R128A_F420I, Saflufenacil (75 gai/ha), 3 days after treatment): 3
Injury rating (1-5 point scale) ([1]; SDS-10648 LTM386-1 AmtuPPX2L_R128A_F420I, Saflufenacil (150 gai/ha), 3 days after treatment): 3
Injury rating (1-5 point scale) ([1]; SDS-10656 LTM377-1 AmtuPPX2L_dG210, Saflufenacil (75 gai/ha), 3 days after treatment): 3.5
Injury rating (1-5 point scale) ([1]; SDS-10656 LTM377-1 AmtuPPX2L_dG210, Saflufenacil (150 gai/ha), 3 days after treatment): 3.5
Injury rating (1-5 point scale) ([1]; SDS-10658 LTM386-1 AmtuPPX2L_R128A_F420I, Saflufenacil (75 gai/ha), 3 days after treatment): 3.5
Injury rating (1-5 point scale) ([1]; SDS-10658 LTM386-1 AmtuPPX2L_R128A_F420I, Saflufenacil (150 gai/ha), 3 days after treatment): 3.5
Injury rating (1-5 point scale) ([1]; SDS-10761 LTM383-1 AmtuPPX2L_F420M, Saflufenacil (75 gai/ha), 3 days after treatment): 3
Injury rating (1-5 point scale) ([1]; SDS-10761 LTM383-1 AmtuPPX2L_F420M, Saflufenacil (150 gai/ha), 3 days after treatment): 3
Injury rating (1-5 point scale) ([1]; SDS-10776 LTM386-1 AmtuPPX2L_R128A_F420I, Saflufenacil (75 gai/ha), 3 days after treatment): 2
Injury rating (1-5 point scale) ([1]; SDS-10776 LTM386-1 AmtuPPX2L_R128A_F420I, Saflufenacil (150 gai/ha), 3 days after treatment): 2.5
Injury rating (1-5 point scale) ([1]; SDS-10787 LTM384-1 AmtuPPX2L_R128A_F420L, Saflufenacil (75 gai/ha), 3 days after treatment): 3
Injury rating (1-5 point scale) ([1]; SDS-10787 LTM384-1 AmtuPPX2L_R128A_F420L, Saflufenacil (150 gai/ha), 3 days after treatment): 2.5
injury (1-5 point scale) ([1]; SDS-10791 AmtuPPX2L R128A_F420I, Saflufenacil 75 g ai/ha, 3 days after treatment): 2
injury (1-5 point scale) ([1]; SDS-10791 AmtuPPX2L R128A_F420I, Saflufenacil 150 g ai/ha, 3 days after treatment): 2
Injury rating (1-5 point scale) ([1]; SDS-10791 LTM386-1 AmtuPPX2L_R128A_F420I, Saflufenacil (75 gai/ha), 3 days after treatment): 2
Injury rating (1-5 point scale) ([1]; SDS-10791 LTM386-1 AmtuPPX2L_R128A_F420I, Saflufenacil (150 gai/ha), 3 days after treatment): 2
Injury rating (1-5 point scale) ([1]; SDS-10985 LTM385-1 AmtuPPX2L_R128A_F420M, Saflufenacil (75 gai/ha), 3 days after treatment): 2
Injury rating (1-5 point scale) ([1]; SDS-10985 LTM385-1 AmtuPPX2L_R128A_F420M, Saflufenacil (150 gai/ha), 3 days after treatment): 2
Injury rating (1-5 point scale) ([1]; SDS-10990 LTM385-1 AmtuPPX2L_R128A_F420M, Saflufenacil (75 gai/ha), 3 days after treatment): 2.5
Injury rating (1-5 point scale) ([1]; SDS-10990 LTM385-1 AmtuPPX2L_R128A_F420M, Saflufenacil (150 gai/ha), 3 days after treatment): 2.5
Injury rating (1-5 point scale) ([1]; SDS-10998 LTM387-1 AmtuPPX2L_R128A_F420V, Saflufenacil (75 gai/ha), 3 days after treatment): 2
Injury rating (1-5 point scale) ([1]; SDS-10998 LTM387-1 AmtuPPX2L_R128A_F420V, Saflufenacil (150 gai/ha), 3 days after treatment): 2
Injury rating (1-5 point scale) ([1]; SDS-11011 LTM385-1 AmtuPPX2L_R128A_F420M, Saflufenacil (75 gai/ha), 3 days after treatment): 2
Injury rating (1-5 point scale) ([1]; SDS-11011 LTM385-1 AmtuPPX2L_R128A_F420M, Saflufenacil (150 gai/ha), 3 days after treatment): 2
injury (1-5 point scale) ([1]; SDS-11014 AmtuPPX2L R128A_F420I, Saflufenacil 75 g ai/ha, 3 days after treatment): 2
injury (1-5 point scale) ([1]; SDS-11014 AmtuPPX2L R128A_F420I, Saflufenacil 150 g ai/ha, 3 days after treatment): 2
Injury rating (1-5 point scale) ([1]; SDS-11014 LTM386-1 AmtuPPX2L_R128A_F420I, Saflufenacil (75 gai/ha), 3 days after treatment): 2
Injury rating (1-5 point scale) ([1]; SDS-11014 LTM386-1 AmtuPPX2L_R128A_F420I, Saflufenacil (150 gai/ha), 3 days after treatment): 2
injury (1-5 point scale) ([1]; SDS-11034 AmtuPPX2L L397D_F420V, Saflufenacil 75 g ai/ha, 3 days after treatment): 2
injury (1-5 point scale) ([1]; SDS-11034 AmtuPPX2L L397D_F420V, Saflufenacil 150 g ai/ha, 3 days after treatment): 2
Injury rating (1-5 point scale) ([1]; SDS-11034 LTM387-1 AmtuPPX2L_R128A_F420V, Saflufenacil (75 gai/ha), 3 days after treatment): 3
Injury rating (1-5 point scale) ([1]; SDS-11034 LTM387-1 AmtuPPX2L_R128A_F420V, Saflufenacil (150 gai/ha), 3 days after treatment): 2
injury (1-5 point scale) ([1]; SDS-11035 AmtuPPX2L R128A_F420V, Saflufenacil 75 g ai/ha, 3 days after treatment): 2
injury (1-5 point scale) ([1]; SDS-11035 AmtuPPX2L R128A_F420V, Saflufenacil 150 g ai/ha, 3 days after treatment): 2
Injury rating (1-5 point scale) ([1]; SDS-11035 LTM387-1 AmtuPPX2L_R128A_F420V, Saflufenacil (75 gai/ha), 3 days after treatment): 2
Injury rating (1-5 point scale) ([1]; SDS-11035 LTM387-1 AmtuPPX2L_R128A_F420V, Saflufenacil (150 gai/ha), 3 days after treatment): 2
Injury rating (1-5 point scale) ([1]; SDS-11036 LTM386-1 AmtuPPX2L_R128A_F420I, Saflufenacil (75 gai/ha), 3 days after treatment): 2.5
Injury rating (1-5 point scale) ([1]; SDS-11036 LTM386-1 AmtuPPX2L_R128A_F420I, Saflufenacil (150 gai/ha), 3 days after treatment): 2.5
injury (1-5 point scale) ([1]; SDS-11052 AmtuPPX2L R128A_F420M, Saflufenacil 75 g ai/ha, 3 days after treatment): 2
injury (1-5 point scale) ([1]; SDS-11052 AmtuPPX2L R128A_F420M, Saflufenacil 150 g ai/ha, 3 days after treatment): 2
Injury rating (1-5 point scale) ([1]; SDS-11052 LTM385-1 AmtuPPX2L_R128A_F420M, Saflufenacil (75 gai/ha), 3 days after treatment): 3
Injury rating (1-5 point scale) ([1]; SDS-11052 LTM385-1 AmtuPPX2L_R128A_F420M, Saflufenacil (150 gai/ha), 3 days after treatment): 3
Injury rating (1-5 point scale) ([1]; SDS-11105 LTM387-1 AmtuPPX2L_R128A_F420V, Saflufenacil (75 gai/ha), 3 days after treatment): 2.5
Injury rating (1-5 point scale) ([1]; SDS-11105 LTM387-1 AmtuPPX2L_R128A_F420V, Saflufenacil (150 gai/ha), 3 days after treatment): 2.5
Injury rating (1-5 point scale) ([1]; SDS-11110 LTM387-1 AmtuPPX2L_R128A_F420V, Saflufenacil (75 gai/ha), 3 days after treatment): 2.5
Injury rating (1-5 point scale) ([1]; SDS-11110 LTM387-1 AmtuPPX2L_R128A_F420V, Saflufenacil (150 gai/ha), 3 days after treatment): 2.5
Injury rating (1-5 point scale) ([1]; SDS-11111 LTM386-1 AmtuPPX2L_R128A_F420I, Saflufenacil (75 gai/ha), 3 days after treatment): 2.5
Injury rating (1-5 point scale) ([1]; SDS-11111 LTM386-1 AmtuPPX2L_R128A_F420I, Saflufenacil (150 gai/ha), 3 days after treatment): 2.5
Injury rating (1-5 point scale) ([1]; SDS-11118 LTM386-1 AmtuPPX2L_R128A_F420I, Saflufenacil (75 gai/ha), 3 days after treatment): 2
Injury rating (1-5 point scale) ([1]; SDS-11118 LTM386-1 AmtuPPX2L_R128A_F420I, Saflufenacil (150 gai/ha), 3 days after treatment): 2
Injury rating (1-5 point scale) ([1]; Wildtype Jake, Saflufenacil (75 gai/ha), 3 days after treatment (Table 11e)): 5
Injury rating (1-5 point scale) ([1]; Wildtype Jake, Saflufenacil (75 gai/ha), 3 days after treatment (Table 11d)): 5
Injury rating (1-5 point scale) ([1]; Wildtype Jake, Saflufenacil (150 gai/ha), 3 days after treatment (Table 11e)): 5
Injury rating (1-5 point scale) ([1]; Wildtype Jake, Saflufenacil (150 gai/ha), 3 days after treatment (Table 11d)): 5
injury (1-5 point scale) ([1]; wild type, Saflufenacil 75 g ai/ha, 3 days after treatment): 5
injury (1-5 point scale) ([1]; wild type, Saflufenacil 150 g ai/ha, 3 days after treatment): 5
Injury rating (1-5 point scale) ([1]; wild type, saflufenacil: treatment 1 150 g ai/ha, treatment 2 0, 7 DAT): 5
Injury rating (1-5 point scale) ([1]; wild type, saflufenacil: treatment 1 300 g ai/ha, treatment 2 300 g ai/ha, 14 DAT): 5
Relative tolerance rate as compared to a non-transgenic Arabidopsis plant (non-transgenic = 1.0) ([2]; transgenic Arabidopsis AMATU_PPO2_F420I): 80
Relative tolerance rate as compared to a non-transgenic Arabidopsis plant (non-transgenic = 1.0) ([2]; transgenic Arabidopsis AMATU_PPO2_F420L): 192
Relative tolerance rate as compared to a non-transgenic Arabidopsis plant (non-transgenic = 1.0) ([2]; transgenic Arabidopsis AMATU_PPO2_F420M): 168
Relative tolerance rate as compared to a non-transgenic Arabidopsis plant (non-transgenic = 1.0) ([2]; transgenic Arabidopsis AMATU_PPO2_R128A_F420I): 1200
Relative tolerance rate as compared to a non-transgenic Arabidopsis plant (non-transgenic = 1.0) ([2]; transgenic Arabidopsis AMATU_PPO2_R128A_F420L): 1200
Relative tolerance rate as compared to a non-transgenic Arabidopsis plant (non-transgenic = 1.0) ([2]; transgenic Arabidopsis AMATU_PPO2_R128A_F420M): 1160
Relative tolerance rate as compared to a non-transgenic Arabidopsis plant (non-transgenic = 1.0) ([2]; transgenic Arabidopsis AMATU_PPO2_R128L): 160
Relative tolerance rate as compared to a non-transgenic Arabidopsis plant (non-transgenic = 1.0) ([2]; transgenic Arabidopsis AMATU_PPO2_dG210): 100
Relative tolerance rate as compared to a non-transgenic Arabidopsis plant (non-transgenic = 1.0) ([2]; transgenic Arabidopsis AMATU_PPO2_dG210_R128L): 1200
Relative tolerance rate as compared to a non-transgenic Arabidopsis plant (non-transgenic = 1.0) ([2]; transgenic Arabidopsis AMATU_PPO2_wt): 10
